Results on five compounds are retold here after publication PMC8361937, “Multifunctional Heterometallic Ir^III−Au^I Probes as Promising Anticancer and Antiangiogenic Agents” (Chemistry (Weinheim an Der Bergstrasse, Germany), 2021).

Series [1] deals with A549 lung carcinoma cells. Nature of the series: MTT-reduction cell viability assay in A549 cells. The format is cell-based, human. Particulars: 24 h incubation. Here is the method:
In vitro bioactivity of complexes 1 to 4 as well as their dimer precursor was determined by MTT‐reduction assays in A549 lung carcinoma cells (Table 2). […] Cells show an increased sensitivity to the heterobimetallic species bearing a phosphine or a thiocytosine group as gold ancillary ligand, complexes 2 and 4 respectively. The higher balance of the lipo‐ vs hydrophilicity of triphenylphosphine[35] of complex 2, or the bio‐friendly nature of the thiocytosine ancillary ligand[36, 37] in the case of complex 4 might promote an increase of the cell permeabilisation and thus display a greater antiproliferative activity.
Cell culture: A549 (human lung carcinoma) cell line (from ATCC, USA) was routinely cultured in high glucose DMEM medium supplemented with 5 % foetal bovine serum (FBS), L‐glutamine and penicillin/streptomycin (hereafter, complete medium).
Cell viability assays : The MTT‐reduction assay was used to analyse cell metabolic activity as an indicator for cell sensitivity to the complexes in A549 cell line. 10^5 cells/mL were seeded in complete medium in flat‐bottom, 96‐well plates (100 μL/well) and allowed to attach for 24 h prior to addition of compounds. The complexes were dissolved in DMSO and added to cells in concentrations ranging from 0.5 to 50 μM in quadruplicate. Cells were incubated with our compounds for 24 h and then 10 μL of MTT (5 mg mL^−1 in PBS) were added to each well and plates were incubated for 2 h at 37 °C. Finally, culture medium was removed and DMSO (100 μL/well) was added to dissolve the formazan crystals. The optical density was measured at 550 nm using a 96‐well multiscanner autoreader (ELISA) and IC50 was calculated. Each compound was analysed at least in three independent experiments.

In series [2] the test system is apb‐ECFCs. Nature of the series: Annexin V-FITC/PI apoptosis determination in apb-ECFCs. The format is cell-based, human. Particulars: 4 μM, 3 h; for Early apoptotic / Late apoptotic / Necrotic / Viable: apb ECFCs; for Mortality level: apb‐ECFCs. Here is the method: (§1) An apoptosis determination test was performed under acute conditions, that is, incubation for a short period of time (3 h) and high concentration of complexes (4 μM; Table 4). A different response was observed regarding the origin of the ECFCs. While the cytotoxic effect on ucb‐ECFCs was similar for all complexes (ca. 20 %), mortality levels of 50 % were achieved on apb‐ECFCs with complexes 1 and 4. On the contrary, complex 2 appeared to be no toxic under these conditions.
(§2) For apoptosis assessment on ECFCs cells exposed to 1, 2 and 4 complexes, an Annexin V apoptosis detection kit (Immunostep), with FITC‐conjugated Annexin V and propidium iodide (PI), was used. Cells were incubated during 3 h with 1, 2 and 4 at 4 μM, gently detached from cell culture surface with Accutase (Corning) and resuspended in D‐PBS, and stained with FITC‐conjugated annexin V and PI according to manufacturer instructions. Data were acquired using a Gallios Flow Cytometer (Beckman Coulter), and Kaluza v2.1 (Beckman Coulter) software was used for data analysis.

Series [3] concerns apb‐ECFCs. Nature of the series: Crystal violet cell viability assay in apb-ECFCs. Conditions: 24 h. It is filed as cell-based, human. The procedure:
(§3) Effects on the cell viability related to compounds 1, 2 and 4 were analysed by crystal violet assays in ucb‐ECFCs and apb‐ECFCs. Both kinds of cells show a dose‐dependent sensitivity to the complexes after 24 h of treatment (Figure S30). IC50 values were on the range 1.1‐3.6 μM, ucb‐ECFCs being more sensitive than apb‐ECFCs to the compounds (Table 3), which could be associated to the increased proliferative activity of the ucb‐ECFCs.
(§4) Endothelial colony forming cells (ECFC) were isolated from umbilical cord blood from healthy births but unsuitable for transplantation (ucb‐ECFCs), or from peripheral blood of adult healthy donors (apb‐ECFCs) following the method described by Ingram et al.[57] with minor modifications. […]
(§5) For ECFCs cell viability determination, crystal violet assays were performed. […] Estimation of cell density was achieved by solubilisation of cell‐retained crystal violet with 10 % acetic acid solution and absorbance measurement at 540 nm in a Synergy HD system (BioTek). Data were analysed with SAIC50 v1.5.10 (http://gauss.inf.um.es:8080/IC50/) using the four‐parameter logistic function to calculate IC50 values according to Sebaugh et al.[58]

Series [4] deals with ucb‐ECFCs. Kind of series: Annexin V-FITC/PI apoptosis determination in ucb-ECFCs. Particulars: 4 μM, 3 h. It is filed as cell-based, human. The procedure:
as §1, §2

The subject of series [5] is ucb‐ECFCs. Kind of series: Crystal violet cell viability assay in ucb-ECFCs. The format is cell-based, human. Particulars: 24 h. Here is the method: as §3, §4, §5
A further series has as its system ECFCs. Nature of the series: In vitro tube formation (angiogenic activity) assay. It is filed as cell-based, human. Conditions: 0.25 μM, 20 h, ucb- and apb-ECFCs. Here is the method:
In vitro tube formation assay is a highly informative test to probe angiogenic ability of endothelial cells.[55] This observation could be the basis to consider their potential antiangiogenic activity and develop complementary assays in more physiologically relevant models. […] The mechanisms involved in this effect deserve further research.
Tube formation assay: Endothelial cells (10 000 cell/well) suspended in cell culture medium containing each compound at 0.25 μM or vehicle (DMSO) were seeded over Cultrex® Reduced Growth Factor Basement Membrane Matrix (Trevigen) gelled (37 °C for 30 min) in wells of μ‐Slide Angiogenesis coverslips (ibidi). DMSO concentration in the medium was below 0.5 %. Cells were then incubated for a 20 h period with the treatments. Images were acquired with a Moticam 3 digital camera system (Motic) through a CK40 inverted microscope (Olympus) using a 10x objective.

Series [6] deals with A549 cells. Nature of the series: Mitochondrial transmembrane potential analysis (TMRE, flow cytometry). It is filed as cell-based, human. Conditions: 48 h. An excerpt:
TMRE is a positively charged dye that accumulates in cells with active mitochondria as consequence of their net internal negative charge but several cell insults, including chemotherapeutic agents, lead to mitochondrial depolarisation and thus TMRE incorporation fails. A shift is seen in the pattern staining for complexes 1 (Figure S29) and 4 (Figure 13) in comparison with untreated cells and this overlaps with that seen when treating cells with S63845 (positive control), a selective inhibitor of the Mcl‐1 antiapoptotic protein involved in the regulation of the mitochondrial apoptotic pathway.
Mitochondrial transmembrane potential analysis: Integrity of the mitochondrial outer membrane was evaluated by measuring disruption of mitochondrial transmembrane potential. For this assay, 10^5 A549 cells/mL were seeded in complete medium in flat‐bottom, 12‐well plates (1 mL/well) and allowed to attach for 24 h prior to addition of compounds. Cells were treated for 48 h with compound 4 at 150 μM in duplicate. Then, they were trypsinised, resuspended in 500 μl of a mixture of complete medium and 60 nM of the tetramethilrhodamine ethyl ester (TMRE) probe and incubated at 37 °C in the dark for 20 min. Finally, a total of 10 000 cells were acquired on a FACSCalibur flow cytometer (BD Biosciences) and data were analysed using the aforementioned software.
On the technique in general: A flow cytometer gives signals particle by particle.

Series [7] deals with A549 cells. Nature of the series: Cell death mechanism by Annexin V-DY634/7-AAD flow cytometry with or without Z-VAD-fmk. Conditions: 24 and 48 h, 30 μM Z‐VAD‐fmk. It is filed as cell-based, human. The procedure:
For flow cytometry analysis, phosphatidylserine exposure on cell surface as an “early apoptosis” marker and cell membrane damage as necrosis indicator were evaluated with Annexin V‐DY634 (apoptosis) and the DNA‐labelling dye 7‐AAD (necrosis) staining. […] As shown in Figures 4 and S22 (top graphs), cells are distributed in three populations. Annexin V‐DY634‐only positive cells are indicative of an early apoptotic process, a 7‐AAD‐only labelled cell population represents exploded cells as a typical endpoint of necrotic cell death, and the doubly stained population implies that cells started being apoptotic and then eventually burst, a phenomenon known as “late apoptosis”. It is remarkable that late apoptosis state was easily reached at higher concentrations for both complexes. […] As both compounds activate apoptotic pathway, we wanted to unveil whether caspases were implicated in the cell death process by using the pan‐caspase inhibitor Z‐VAD‐fmk.
Cytotoxicity assays: Apoptotic and necrotic cell death was determined by measuring phosphatidylserine exposure on cell surface and cell membrane permeabilisation, respectively, in A549 cells. […] Cell death was analysed using CellQuest Pro (BD Biosciences), FlowJo 7.6.1 (Becton Dickinson (BD), USA) and GraphPad Prism 5 (GraphPad Software, USA) software.

The test system of series [8] is A549 cells. Nature of the series: ROS production measurement (CellROX, flow cytometry). It is filed as cell-based, human. Conditions: 24 h, up to 80 % of IC50. The procedure: The generation of ROS was analysed by flow cytometry using a fluorogenic CellROX^TM assay kit. Complexes 1 and 4 were selected for the experiment to discriminate between the effects that might drive the presence of the gold fragment. […] Such increment might be in fact associated with the presence of the gold fragment as many reported gold species have shown to induce oxidative stress.[43] Therefore, this experiment seems to indicate that the introduction of the gold fragment activates to a higher extent the mechanisms of ROS generation in A549 cells.
ROS production measurement: 5×10^5 A549 cells/well were seeded in complete medium in flat‐bottom, 6‐well plates (3 mL/well) and allowed to attach for 24 h prior to addition of the compound. Complexes 1 and 4 were dissolved in DMSO and added to cells up to concentration of 80 % (IC50) in duplicate. Cells were incubated with the complexes for 24 h and subsequently, they were trypsinised and the CellROX®Green Flow cytometry assay kit (C10492) was used to evaluate the generation of ROS in a Gallios Flow Cytometer (Beckman Coulter) using Kaluza v2.1 software for data analysis.

In series [9] the test system is A549 lung carcinoma cells. Particulars: cited from earlier work.

SMILES strings stand for the structures. Like-named read-outs stand apart in the source and are kept apart here.

What is called IC50 is the concentration that inhibits the measured activity by half. `c1cc[c]2c(c1)-c1cccc[n+]1[Ir-3]213([Cl+][Ir-3]24([Cl+]1)([c]1ccccc1-c1cccc[n+]12)[c]1ccccc1-c1cccc[n+]14)[c]1ccccc1-c1cccc[n+]13` [dimer, [Ir(ppy)2(μ‐Cl)]2] returned an IC50 in series [1] of more than 50000 nM.
In the series with apb‐ECFCs [2], `F[P-](F)(F)(F)(F)F.c1ccc([P+]([Au-][CH]2[P+](c3ccccc3)(c3ccccc3)[Ir-3]34([c]5ccccc5-c5cccc[n+]53)([c]3ccccc3-c3cccc[n+]34)[P+]2(c2ccccc2)c2ccccc2)(c2ccccc2)c2ccccc2)cc1` [Complex 2] returned an Early apoptotic of 9.22%, a Late apoptotic of 8.40%, a Necrotic of 0.14% and a Viable of 82.25%. Also, the Mortality level result in the series with apb‐ECFCs [2] was “no toxic”. Moreover, the IC50 in the series on apb‐ECFCs [3] came to 3520 nM. The IC50 in series [1] came out at 800 ± 60 nM. Further, in the series with ucb‐ECFCs [4], the Early apoptotic stood at 0.93%, the Late apoptotic is reported as 17.24%, the Necrotic came to 5.01% and the Viable is 76.82%. Further, the IC50 in the series with ucb‐ECFCs [5] amounted to 2630 nM. Further, in the series with ECFCs, the “Tube formation activity of ECFCs on Cultrex matrix” value was “reduced although not completely impaired”.
Regarding `F[P-](F)(F)(F)(F)F.c1ccc([P+]2(c3ccccc3)C[P+](c3ccccc3)(c3ccccc3)[Ir-3]234([c]2ccccc2-c2cccc[n+]23)[c]2ccccc2-c2cccc[n+]24)cc1` [Complex 1, [Ir(ppy)2(dppm)]PF6], in the series with apb‐ECFCs [2], the Early apoptotic came out at 8.30%, the Late apoptotic was found to be 51.93%, the Necrotic is 9.02% and the Viable is recorded as 30.75%. The compound also had a Mortality level in the series on apb‐ECFCs [2] of 50%. The IC50 with apb‐ECFCs [3] worked out at 2710 nM. Besides, the “Disruption of mitochondrial transmembrane potential (TMRE staining)” value with A549 cells [6] is reported as “complete disruption of mitochondrial transmembrane potential”. In addition, the “Cell death mechanism (effect of pan-caspase inhibitor Z-VAD-fmk)” value in the series with A549 cells [7] is on record as “caspase‐independent cell death mechanism”. Besides, half-maximal inhibition in series [1] (IC50) required 1000 ± 80 nM. In the series with ucb‐ECFCs [4], this compound yielded an Early apoptotic of 1.12%, a Late apoptotic of 21.81%, a Necrotic of 3.96% and a Viable of 73.10%. In addition, the IC50 in the series on ucb‐ECFCs [5] is 1160 nM. In addition, the “Tube formation activity of ECFCs on Cultrex matrix” value with ECFCs is listed as “reduced although not completely impaired”. The ROS generation result with A549 cells [8] is listed as “dose‐dependent increase in the generation of ROS”.
In the case of `[Cl][AuH][CH]1[P+](c2ccccc2)(c2ccccc2)[Ir-3]23([c]4ccccc4-c4cccc[n+]42)([c]2ccccc2-c2cccc[n+]23)[P+]1(c1ccccc1)c1ccccc1` [Complex 3], in [1], the IC50 is 1700 ± 80 nM.
As for `N.N.[Cl][Pt][Cl]` [cisplatin, reference compound], the IC50 in [9] is 20800 ± 2100 nM.
